Measurements reported in paper PMC11413853, “Discovery of VU6007496: Challenges in the Development of an M1 Positive Allosteric Modulator Backup Candidate” (ACS Chemical Neuroscience, 2024).
Where two headings read alike, the source gives them in different places.

Tests used:
[1] = Plasma protein binding, cyno; type: in vitro ADME; details: cynomolgus monkey, pH 7.4, read-out: fu,plasma cyno
Description: Plasma protein binding and Brain homogenate binding: Determination of fraction unbound (f u) in plasma was conducted in vitro via equilibrium dialysis using HTDialysis (HTD) membrane plates. The top half of the plate was filled with 100 uL of Dubelco’s Phosphate Buffered Saline, pH 7.4 (DPBS). Compounds were diluted into plasma from each species (5 µM final concentration), which was aliquoted in triplicate to the ‘bottom half’ of the prepared HTD plate wells. The HTD plate was sealed and incubated for 6 hours at 37 °C. Following incubation, each well (both top and bottom halves) were transferred (20 µL) to the corresponding wells of a 96-shallow-well (V-bottom) plate. […]
The unbound fraction (f u) was calculated following the equation below, and mean values for each species were calculated from 3 replicates.
A similar approach was used to determine the degree of brain homogenate binding, which employed the same methodology and procedure with the following modifications: 1) a final compound concentration of 1 μM was used, 2) naïve rat brains were homogenized in DPBS (1:3 composition of brain: DPBS, w/w) using a Mini-Bead Beater™ machine in order to obtain brain homogenate, which was then treated in the same manner as the plasma samples in the previously described plasma protein binding assay. Fraction unbound for both plasma and brain samples was determined using Equation 4. […]

[2] = test system: CYP3A4, CYP1A2, CYP2C9 and CYP2D6; test: CYP450 profile (summary over four isoforms); type: in vitro ADME; details: human; summary over the four isoforms; read-out: CYP450 IC50s against CYP3A4, CYP1A2, CYP2C9 and CYP2D6
4-strain Ames = 4-strain Ames assay; details: with and without S9
[3] = GSH trapping study in human liver microsomes; type: in vitro ADME
cardiac ion channels = test: Electrophysiology panel of cardiac ion channels (summary); type: cell-based; details: 10 μM; whole panel
From the text: In a 4-strain Ames assay, with and without S9, both 11 and 12 were negative.
Table S2. Effects of VU6007496 on Ion Channel Current (Charles River Study 200609.WVN)
Ion Channel Conc Mean % Standard Standard n Individual Data
(μM) Inhibition Deviation Error Points (% Inhibition)

[4] = IV/PO pharmacokinetics, NHP; type: in vivo; details: NHP (cyno); for clearance / Vd / half-life: cynomolgus monkey, plasma, 1 mg/kg; for clearance: read-out: CLp; for Vd: read-out: Vss; for half-life: read-out: elimination t1/2 (converted)
From the text: We next conducted multispecies IV/PO PK in parallel as a potential discerning data set.

[5] = Rat plasma and brain exposure, 100 mg/kg i.p., 3 h; type: in vivo; details: ip; for Kp at 3 h: brain and plasma, 100 mg/kg i.p.; for concentration at 3 h: 100 mg/kg i.p. in 30% captisol
From the text: Due to the prevalence of metabolite A (VU6036463, 24) in both in vitro preparations and in vivo, we first synthesized and characterized 24. Utilizing intermediate 19 (Scheme 3), a Suzuki coupling with benzyl chloride 28 afforded a mixture of N-Boc protected analog 29 and N-H analog 29a in moderate isolated yield. Hydrolysis of the nitriles to the carboxylic acid, followed by a HATU-mediated coupling with tetrahydro-2H-pyran-4-amine delivered 24 in 81% yield over the two steps.[21] In our kinetic assays, 24 was an “active” metabolite, with the profile of an M1 ago-PAM. […] To ascertain if 24 could be the source of the adverse cholinergic events in rats, we dosed 11 and 24, in parallel, at a dose of 100 mg/kg i.p. in 30% captisol and prepared plasma and brain samples at a 3-h time point to determine brain exposure of the M1 ago-PAM 24. In this study, 11 achieved a total plasma concentration of 3.6 μM and a total brain concentration of 0.93 μM (Kp = 0.26).

MET ID in rat liver S9 = type: in vitro ADME; details: based on MS peak areas
From the text: Eight oxidative metabolites were identified, with the major metabolite in both rat and human being Metabolite A (VU6036463, 24), the result of oxidative N-demethylation of the southern pyrazole (Scheme 4). The majority of other oxidative metabolism occurred on the tetrahydropyran moiety and included ring opening, but there was no amide hydrolysis observed.[21]

Adenosine A2A = test: Eurofins radioligand binding; parameters: species or system Human; details: specific binding
Adrenergic α1A = test: Eurofins radioligand binding; parameters: species or system Human; details: specific binding
Androgen (Testosterone) = test: Eurofins radioligand binding; parameters: species or system Human; details: specific binding
Bradykinin B1 = test: Eurofins radioligand binding; parameters: species or system Human; details: specific binding
Cannabinoid CB1 = test: Eurofins radioligand binding; parameters: species or system Human; details: specific binding
Dopamine D1 = test: Eurofins radioligand binding; parameters: species or system Human; details: specific binding
Dopamine D2S = test: Eurofins radioligand binding; parameters: species or system Human; details: specific binding
Endothelin ETA = test: Eurofins radioligand binding; parameters: species or system Human; details: specific binding
GABAA, Muscimol, Central = test: Eurofins radioligand binding; parameters: species or system Rat; details: specific binding
Glutamate, NMDA, Agonism = test: Eurofins radioligand binding; parameters: species or system Rat; details: specific binding
Histamine H2 = test: Eurofins radioligand binding; parameters: species or system Human; details: specific binding
Muscarinic M3 = test: Eurofins radioligand binding; parameters: species or system Human; details: specific binding
[6] = test system: Nicotinic Acetylcholine α1, Bungarotoxin; test: Eurofins radioligand binding; parameters: species or system Human; details: specific binding
Opiate κ (OP2, KOP) = test: Eurofins radioligand binding; parameters: species or system Human; details: specific binding
[7] = test system: Transporter, Norepinephrine (NET); test: Eurofins radioligand binding; parameters: species or system Human; details: specific binding
[8] = brain, read-out: total brain concentration
[9] = plasma, read-out: total plasma concentration

SMILES: Cn1ccc(-c2ccc(Cc3cc(C(=O)NC4CCOCC4)nc4ccsc34)cc2)n1 [compound 12]
- fraction unbound at 6 h, 5 µM [1]: 0.009
- IC50 [2]: > 16 µM
- Ames result (4-strain Ames): negative
- GSH trapping, reactive intermediates [3]: negative
- inhibition of cardiac ion channels (cardiac ion channels): < 17%
- F (%) po ([4]; dose iv/po 1/3 mg/kg): 79%
- clearance ([4]; dose iv/po 1/3 mg/kg): 2.3 mL/min/kg
- Vd ([4]; dose iv/po 1/3 mg/kg): 0.7 L/kg
- half-life ([4]; dose iv/po 1/3 mg/kg): 4.5 h

SMILES: Cn1ccc2nc(C(=O)NC3CCOCC3)cc(Cc3ccc(-c4cc[nH]n4)cc3)c21 [compound 24]
- Kp at 3 h [5]: 0.07
- concentration at 3 h [5, 8]: 80 nM
- concentration at 3 h [5, 9]: 1200 nM

SMILES: Cn1ccc(-c2ccc(Cc3cc(C(=O)NC4CCOCC4)nc4ccn(C)c34)cc2)n1 [compound 11]
- fraction unbound at 6 h, 5 µM [1]: 0.026
- IC50 [2]: > 16 µM
- Ames result (4-strain Ames): negative
- GSH trapping, reactive intermediates [3]: negative
- inhibition of cardiac ion channels (cardiac ion channels): < 17%
- F (%) po ([4]; dose iv/po 1/5 mg/kg): 59%
- clearance ([4]; dose iv/po 1/5 mg/kg): 5.9 mL/min/kg
- Vd ([4]; dose iv/po 1/5 mg/kg): 0.39 L/kg
- half-life ([4]; dose iv/po 1/5 mg/kg): 1 h
- extent of metabolism, rat liver S9 (MET ID in rat liver S9): 36.8%
- Kp at 3 h [5]: 0.26
- concentration at 3 h [5, 8]: 930 nM
- concentration at 3 h [5, 9]: 3600 nM
- % Inhibition at 10 µM (Adenosine A2A): -11%
- % Inhibition at 10 µM (Adrenergic α1A): -1%
- % Inhibition at 10 µM (Androgen (Testosterone)): -24%
- % Inhibition at 10 µM (Bradykinin B1): 21%
- % Inhibition at 10 µM (Cannabinoid CB1): 5%
- % Inhibition at 10 µM (Dopamine D1): 5%
- % Inhibition at 10 µM (Dopamine D2S): 5%
- % Inhibition at 10 µM (Endothelin ETA): 3%
- % Inhibition at 10 µM (GABAA, Muscimol, Central): -1%
- % Inhibition at 10 µM (Glutamate, NMDA, Agonism): 0%
- % Inhibition at 10 µM (Histamine H2): 28%
- % Inhibition at 10 µM (Muscarinic M3): -4%
- % Inhibition at 10 µM [6]: -3%
- % Inhibition at 10 µM (Opiate κ (OP2, KOP)): 32%
- % Inhibition at 10 µM [7]: 12%
